Experimental data taken from patent US12565665B2, “Compositions and methods for controlled mRNA translation and stability” (TRUSTEES OF BOSTON UNIVERSITY, priority 2022, dated 2026).

Legend:
[1] = tested on: UAG-MS2 editing reporter; experiment: Stop codon editing reporter (mCherry / mNeonGreen) co-transfected with ADAR variants, flow cytometry (median mNeonGreen to mCherry); format: cell-based, human; details: for ADAR activity on mCherry-mNeonGreen reporter, no TEV protease: SpyTag / SpyCatcher ADAR variants
From the text: For the reporter system, the inventors used the fluorescent protein-epitope tag tandem fusions of mCherry-FLAG and HA-mNeonGreen as the upstream and downstream coding regions. Without DD editing activity, translation is terminated after mCherry-FLAG. Coexpression with MCP-ADAR2-DD was hypothesized to lead to binding of MCP-DD, stop codon UAG editing to UIG, and expression of mNeonGreen (FIG. 1B).
HEK 293 FT cells were co-transfected with plasmids expressing the reporter containing 2 UAG stop codons in the hairpin and a pcDNA3 construct encoding a fusion protein composed of MCP, ADAR2-DD (E488Q), and TagBFP.
Two days later, fluorescence microscopy images were taken of the cell populations. […] The inventors repeated the experiment and analyzed the samples by flow-cytometry.
The inventors transiently co-transfected HEK 293 FT cells with the mCherry-mNeonGreen reporter, MCP-ADAR2-DD variants containing different configurations of ALFA-tag insertions and NbALFA fusions, and uncaging constructs containing miRFP670 fused to ALFA. Without wishing to be bound by theory, it was hypothesized that the intramolecular interaction would inhibit the ADAR2-DD, but that the ALFA tag on the miRFP670 would displace the lower strength ALFA variants (PE and 78), and perhaps at high enough concentrations displace the intramolecular ALFA, and lead to increased editing.
The inventors then made an ADAR-DD variant with an inserted TEV protease cut site (amino acids ENLYFQG, SEQ ID NO: 286) between the C-terminus of ADAR2-DD and the N-terminus of SpyCatcher (FIG. 5C). The inventors co-transfected HEK 293 FT cells with the reporter construct, the ADAR-DD TEVcs variant, and the TEV protease and 48 hours later analyzed the transfected cells via flow cytometry (FIG. 5D-5E).
Mutated versions were then cloned and co-transfected with an editing reporter in the absence and presence of A-1331852, and absolute background and fold change upon drug addition were determined by flow cytometry (see e.g., FIG. 22d and table 11).

[2] = tested on: UAG-MS2 editing reporter; experiment: Stop codon editing reporter (mCherry / mNeonGreen) co-transfected with ADAR variants, fluorescence microscopy / ImageJ quantification; format: cell-based, human; details: for ADAR editing of the reporter construct depending on fusion position of BAD / Bcl-xL: 50 ng reporter and 50 ng ADAR construct, with or without A-1331852
[3] = tested on: Bcl-xL; experiment: Drug response titration of Bad-BclxL iADAR system using A-1331852; format: cell-based, human; details: ADAR-Bad-BclxL variant with point mutation F121L, drug added at transfection
[4] = target: AlfaNb; details: cited from earlier work
AlfaNb, sequence (as listed by the source): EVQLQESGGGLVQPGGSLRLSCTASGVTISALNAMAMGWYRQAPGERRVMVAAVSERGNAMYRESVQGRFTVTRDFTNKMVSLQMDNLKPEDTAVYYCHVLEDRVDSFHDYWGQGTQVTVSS

[5] = tested on: editable AUG reporters; experiment: Destruction of an AUG start codon to IUG, EGFPd2/dTomato reporter, flow cytometry; format: cell-based, human; details: 48 hours post-transfection; n=3
From the text: To test this, an ADAR substrate was designed similar to the substrates tested above, but with an AUG codon in a dsRNA hairpin with a mismatch to promote the deamination of the correct adenine (see e.g., FIG. 28b). This scheme was similarly tested with both the high affinity MS2-C and lower affinity MS2-A variants by cloning these substrates into a pcDNA3 vector with a bidirectional CMV driving the expression of dTomato and EGFPd2 (see e.g., FIG. 28c).
HEK cells were co-transfected with the two different reporter constructs (MS2-C and MS2-A) and cither filler DNA, MCP-dADAR, or MCP-ADAR. 48 hours post-transfection, cells were lifted and analyzed by flow cytometry. Transfected cells were gated by dTomato, and the median EGFPd2-to-dTomato ratio for the population was calculated per replicate (n=3) by FLOWJO. 2-Way ANOVA was performed to determine significance.

[6] = tested on: GFP-GPI reporter; experiment: AUA to AUI editing creating upstream in-frame signal sequence and HA tag, live imaging and HA staining; format: cell-based, human
From the text: To test this, a reporter construct was designed that contained: an MS2-A editable AUA start codon upstream of the murine IgGκ signal sequence and HA epitope tag (SS-HA), an in frame AUG start codon, GFP, and the glycosylphosphatidylinositol (GPI) anchor sequence from Thymocyte differentiation antigen 1 (GPI in diagram) (see e.g., FIG. 27a). With this reporter, in the absence of editing, the majority of the translated product will be from the AUG codon directly upstream of GFP. This will lead to the translation product residing in the cytoplasm with a non-functional GPI anchor (as this post-translational modification (PTM) must occur in the endoplasmic reticulum (ER) lumen). Upon ADAR editing of the upstream AUA to AUI, translation will initiate upstream of the signal sequence, leading to co-translational translocation of HA-GFP-GPI into the ER lumen, the addition of the GPI anchor PTM, and presentation of HA-GFP on the plasma membrane (see e.g., FIG. 27b). With this construct, the editing can be monitored by either by microscopy (looking for ER & plasma membrane localization) or directly by immunostaining for the HA-tag.
HEK cells were co-transfected with the GFP-GPI reporter and either filler DNA, MCP-dADAR, or MCP-ADAR. A GFP-GPI with a functional start codon before the secretion signal was also transfected as a positive control (GFP-GPI Control). One day after transfection, HEK cells were imaged live, and then fixed and stained for HA tag with a primary anti-HA antibody and a secondary antibody that was conjugated to ALEXAFLUOR 647 (AF647).

[7] = tested on: AUA reporter; experiment: Creation of a START codon (AUA to AUI), EGFPd2/dTomato reporter, flow cytometry; format: cell-based, human; details: 48 hours post-transfection, n=3
From the text: To test this, an ADAR substrate was designed composed of a dsRNA hairpin containing both an AUA-codon with a mismatch at the second adenine to promote specific deamination to AUI (as opposed to IUA or IUI) and an MS2 operator motif (see e.g., FIG. 26b). The design of one large dsRNA hairpin was chosen to promote correct folding of RNA secondary structures. Previous studies have shown that MS2 operators in the 5′UTR of eukaryotic mRNA can lead to decreased translational efficiency when co-expressed with its corresponding coat protein (MS2 coat protein, or MCP), so high and low affinity variants of the MS2 operator (called here MS2-C and MS2-A respectively for the base at the stem loop) were tested with the idea that the lower affinity MS2-A loop would be less likely to inhibit translation by coat protein alone. As positive controls, the same loops were also designed with the correct AUG start codon.
These designs were cloned into pcDNA3 vectors containing a bidirectional CMV promoter driving constitutive dTomato and EGFPd2 (see e.g., FIG. 26c). The S′UTR and start codon of EGFPd2 were replaced with the editable start codon designs so the translational efficiency could be measured by looking at the EGFPd2 fluorescence relative to dTomato when co-expressed with MCP-ADAR. In this construct, if the correct start codon is skipped, the next AUG codon leads to a short, out of frame translation product.
HEK293FT cells were co-transfected with each of the reporter constructs (MS2-C w/ AUG start, MS2-C w/ AUA start, MS2-A w/ AUG start, and MS2-A w/ AUA start) and either filler DNA, inactivated ADAR2-DD (E396A) fused to MCP (MCP-dADAR), or active ADAR2-DD (E488Q) fused to MCP (MCP-ADAR). 48 hours post-transfection, cells were lifted and analyzed by flow cytometry. Transfected cells were gated by dTomato, and the median EGFPd2-to-dTomato ratio for the population was calculated per replicate (n=3) by FLOWJO. 2-Way ANOVA was performed to determine significance.

MCP-linker-ADAR2-DDN-SpyTag- ADAR2(E488Q)-DDC-TagBFP -P2A-T2A-SpyCatcher [T2A-SpyCatcher variant]
ADAR activity on mCherry-mNeonGreen reporter, no TEV protease ([1]; flow cytometry): activity was seen

MCP-linker-ADAR2-DDN-SpyTag- ADAR2(E488Q)-DDC-TEVcs-SpyCatcher-TagBFP [ADAR-DD TEVcs variant]
induced ADAR activity with TEV protease ([1]; co-transfected TEV protease, flow cytometry 48 hours later): close to that of the non-engineered ADAR2-DD | dependence of ADAR activity on TEV protease ([1]; co-transfected with or without TEV protease, flow cytometry 48 hours later): only active with the addition of TEV protease

MCP-linker-BclxL-linker-ADAR2-DDN-Bad(L)-ADAR2(E488Q)-DDC-TagBFP [BclxL-nDD-BAD-cDD]
ADAR editing of the reporter construct depending on fusion position of BAD / Bcl-xL ([2]; HEK cells, two days, n=1): did not inhibit the enzymatic activity

MCP-linker-ADAR2-DDN-SpyTag- ADAR2(E488Q)-DDC-TagBFP [SpyTag variant]
ADAR activity on mCherry-mNeonGreen reporter, no TEV protease ([1]; flow cytometry): activity was seen

Cc1c(-c2ccc(N3CCc4cccc(C(=O)Nc5nc6ccccc6s5)c4C3)nc2C(=O)O)cnn1CC12CC3CC(CC(C3)C1)C2 [A-1331852]
concentration at which activation maxed out ([3]; flow cytometry 48 hours): ~30 nM | concentration at which the iADAR activated (as low as) ([3]; flow cytometry 48 hours after transfection, n=3): 1 nM

lower affinity ALFA epitope variant, GRLEEELRRRLSP, SEQ ID NO: 86 [ALFA-PE]
reported interaction strength with AlfaNb [4]: nanomolar

MCP-linker-ADAR2(E396A & E488Q)-TagBFP [MCP-dADAR]
mNeonGreen expression, fluorescence microscopy ([2]; HEK 293 FT cells co-transfected with reporter containing 2 UAG stop codons in the hairpin, two days after transfection): minimal mNeonGreen fluorescence | translational efficiency, MS2-A based AUG construct [5]: significant decrease in translational efficiency | HA tag staining of cells with AUA construct ([6]; fixed, permeabilized, anti-HA and AF647 secondary): not much staining | cellular distribution of GFP from AUA-SS-GFP-GPI, live imaging ([6]; one day after transfection): more cytoplasmic distribution | Fold Change ([1]; 1 μM vs 0 μM A-1331852, flow cytometry, n=1): 0.9649 | Flow Cytometry Values, 0 μM (median of the ratio of mNeonGreen to mCherry) ([1]; HEK cells co-transfected with ADAR reporter and ADAR variant, 0 μM A-1331852, two days after transfection, gated by BFP, n=1): 0.0049 | Flow Cytometry Values, 1 μM (median of the ratio of mNeonGreen to mCherry) ([1]; HEK cells co-transfected with ADAR reporter and ADAR variant, 1 μM A-1331852, two days after transfection, gated by BFP, n=1): 0.0047 | effect on translational efficiency from a native AUG start codon, MS2-A substrate [7]: more modest negative effect on translational efficiency | relative fluorescence (EGFPd2-to-dTomato) of MS2-C reporters compared with filler DNA (NT) ([7]; 2-Way ANOVA): significantly decreased the relative fluorescence

MCP-linker-BAD-ADAR2-DD(E488Q)-Bcl-xL-TagBFP [BAD-DD-BclxL]
ADAR editing of the reporter construct depending on fusion position of BAD / Bcl-xL ([2]; HEK cells, two days, n=1): drug-dependent allostery | fold change with A-1331852, N-terminal BAD fusion system ([2]; HEK cells, absence or presence of A-1331852, two days, n=1): 5.9 × | background in the absence of drug compared with the loop insertion conformation ([2]; N-terminal BAD, C-terminal Bcl-xL, n=1): significantly higher

ALFA epitope tag, SRLEEELRRRLTE, SEQ ID NO: 85
reported interaction strength with AlfaNb [4]: picomolar

MCP-linker-BAD-ADAR2-DD(E488Q)-TagBFP [BAD-DD]
ADAR editing of the reporter construct depending on fusion position of BAD / Bcl-xL ([2]; HEK cells, two days, n=1): did not affect ADAR editing of the reporter construct
